The values that follow come from patent publication US11964973B2 (priority 2019, dated 2024).

Assay [1] concerns human venous whole blood, CD8 positive population (pERK). Description: DGK human whole blood pERK assay. The assay is classed as cell-based. The note with it: for IC50: human whole blood, CD8 positive population, read-out: DGK HWB pERK IC50. The method, then:
Assay 11: DGK Human Whole Blood pERK Assay
Human whole blood ERK phosphorylation assay was performed with human venous whole blood obtained from healthy donors (drawn with Heparin as anti-coagulant). […] Heparinized human whole blood was added to the compound plate at 9 μL per well and incubated for one hour at 37° C. in a humidified 95%, air/5% CO2 incubator. After one hour of compound incubation, 1 μL of human anti-CD3 antibody (in-house) in the presence of cross-linking antibody goat anti-mouse IgG (4 μg/mL) was added to the well at 1 μg/mL final concentration for stimulation of pathway and additionally incubated for 15 minutes at 37° C. […] Samples analyzed using the Intellicyt® iQue Screener PLUS. The pERK activation was quantitated by the percentage of pERK positive population within CD8 positive population.

Assay [2] relates to Human venous whole blood (IFN-γ). Nature of the assay: Human whole blood IFN-γ assay. The assay is classed as cell-based. The method, then: Assay 10: Human Whole Blood IFN-γ Assay
Human venous whole blood (22.5 μL per well), obtained from healthy donors, was pre-treated with compounds for one hour at 37° C. in a humidified 95% air/5% CO2 incubator. The blood was stimulated with 2.5 μL anti-human CD3 and anti-CD28 mAb at a final concentration of 1 μg/mL each for 24 hours at 37° C. IFN-γ in the supernatants was measured using AlphLISA kit (Cat #AL217).

[3] abbreviates: Homo sapiens, CD8 positive, human whole blood pERK, read-out: DGK HWB.
Where [4] appears, read: human whole blood IFN-γ, read-out: INFg Whole Blood.
[5] abbreviates: Homo sapiens, 24 h, human whole blood, anti-CD3 plus anti-CD28, 24 hours, read-out: INFg Whole Blood Normalized Agonist EC50.
The mark [6] stands for this setting: human whole blood pERK, read-out: DGK HWB.
[7] abbreviates: Homo sapiens, CD8 positive, read-out: DGK HWB, human whole blood pERK.
The mark [8] stands for this setting: read-out: DGK HWB, human whole blood pERK.

Read-outs that look alike come from different tables or passages of the source.

For the molecule `C[C@@H]1CN(c2cc(=O)n(C)c3ccc(C#N)nc23)CC[C@@H]1Oc1ccc(C(F)(F)F)cc1` (single isomer, unassigned) [Example 187, 5-methyl-8-(cis-3-methyl-4-(4-(trifluoromethyl)phenoxy)piperidin-1-yl)-6-oxo-5,6-dihydro-1,5-naphthyridine-2-carbonitrile (rel)], the results for the EC50 in assay [1] (setting [3]) and in assay [2] (setting [4]) were 1800 nM and 1700 nM, respectively.
As for `C[C@@H]1CN(c2cc(=O)n(C)c3ccc(C#N)nc23)CC[C@H]1Oc1ccc(F)c(F)c1` (single isomer, unassigned) [Example 104], the IC50 – broadly, the concentration at which inhibition is half-maximal – in assay [1] turned out to be 1100 nM. In assay [2] (setting [5]), the EC50 came to 1800 nM.
As to `CC(C)Oc1ccc(O[C@@H]2CCN(c3cc(=O)n(C)c4ccc(C#N)nc34)C[C@H]2C)nc1` (single isomer, unassigned) [Example 200], the EC50 worked out at 3300 nM in assay [1] (setting [3]) and 1500 nM in assay [2] (Homo sapiens, human whole blood IFN-γ, read-out: INFg Whole Blood).
Consider `CC[C@@H]1CN(c2cc(=O)n(C)c3ccc(C#N)nc23)CC[C@H]1Oc1ccc(C(C)C)cc1` (single isomer, unassigned) [Example 144], for which the IC50 in assay [1] turned out to be 880 nM. Also, in assay [2] (human whole blood, anti-CD3 plus anti-CD28, 24 hours, read-out: INFg Whole Blood Normalized Agonist EC50), the EC50 amounted to 800 nM.
With `CC(C)Oc1ccc(O[C@@H]2CCN(c3cc(=O)n(C)c4ccc(C#N)nc34)C[C@H]2C)nc1` (single isomer, unassigned) [Example 201], the EC50 is 3900 nM in assay [1] (setting [6]) and 920 nM in assay [2] (setting [4]).
For the molecule `C[C@@H]1CN(c2cc(=O)n(C)c3ccc(C#N)nc23)CC[C@@H]1Oc1ccc(C(C)(C)C)cc1` (racemic) [Example 175, 8-((3R,4S)-4-(4-(tert-butyl)phenoxy)-3-methylpiperidin-1-yl)-5-methyl-6-oxo-5,6-dihydro-1,5-naphthyridine-2-carbonitrile], the IC50 in assay [1] amounted to 800 nM. Further, the EC50 in assay [2] (setting [5]) was determined as 1400 nM.
As to `CC(C)Oc1ccc(OC2C[C@H](C)N(c3nc(=O)n(C)c4ccc(C#N)nc34)C[C@@H]2C)nc1` (mixture of isomers) [Example 243, (±)-Cis-(-4-((5-isopropoxypyridin-2-yl)oxy)-2,5-dimethylpiperidin-1-yl)-1-methyl-2-oxo-1,2-dihydropyrido[3,2-d]pyrimidine-6-carbonitrile], the EC50 in assay [1] (setting [7]) came to 590 nM.
Still for that read-out and setting: the figure for `C[C@@H]1CN(c2nc(=O)n(C)c3ccc(C#N)nc23)[C@@H](C)CC1Oc1cccc(C(F)(F)F)c1` (stereo in doubt) [Example 252, 4-((2S,5R)-2,5-dimethyl-4-(3-(trifluoromethyl)phenoxy)piperidin-1-yl)-1-methyl-2-oxo-1,2-dihydropyrido[3,2-d]pyrimidine-6-carbonitrile] is 3500 nM.
For the molecule `CCO[C@H]1CN(c2cc(=O)n(C)c3ccc(C#N)nc23)CC[C@@H]1Oc1ccccc1C(F)(F)F` [Example 346, 8-((3S,4S)-3-ethoxy-4-(2-(trifluoromethyl)phenoxy)piperidin-1-yl)-5-methyl-6-oxo-5,6-dihydro-1,5-naphthyridine-2-carbonitrile], in assay [1] (setting [6]), the EC50 came out at 20000 nM.
With `C[C@@H]1CN(c2nc(=O)n(C)c3ccc(C#N)nc23)[C@H](C)CC1Oc1cccc(C(F)(F)F)c1` (stereo partly drawn) [Example 256, 4-((2R,5R)-2,5-dimethyl-4-(3-(trifluoromethyl)phenoxy)piperidin-1-yl)-1-methyl-2-oxo-1,2-dihydropyrido[3,2-d]pyrimidine-6-carbonitrile], the EC50 in assay [1] (setting [8]) was 4700 nM.
With `CCO[C@H]1CN(c2cc(=O)n(C)c3ccc(C#N)nc23)CC[C@@H]1Oc1ccnc(C(F)(F)F)c1` [Example 360, 8-((3S,4S)-3-ethoxy-4-((2-(trifluoromethyl)pyridin-4-yl)oxy)piperidin-1-yl)-5-methyl-6-oxo-5,6-dihydro-1,5-naphthyridine-2-carbonitrile], in assay [1] (setting [8]), the EC50 was 700 nM.
Take `CC[C@@H]1CN(c2nc(=O)n(C)c3ccc(C#N)nc23)[C@H](C)C[C@@H]1Oc1ccc(OC(C)C)cn1` [Example 305, 4-((2R,4S,5R)-5-ethyl-4-((5-isopropoxypyridin-2-yl)oxy)-2-methylpiperidin-1-yl)-1-methyl-2-oxo-1,2-dihydropyrido[3,2-d]pyrimidine-6-carbonitrile]: the EC50 in assay [1] (setting [7]) stood at 730 nM.
In the case of `CC1CN(c2c(C#N)c(=O)n(C)c3ccc(C#N)nc23)CCC1N(C)C1CCC(F)(F)CC1` (single isomer, unassigned) [Example 329], the EC50 in assay [1] (setting [3]) came out at 13000 nM.
Same read-out and setting: to `C[C@H]1CN(c2cc(=O)n(C)c3ccc(C#N)nc23)[C@@H](C)C[C@H]1Oc1cccc(Cl)c1` [Example 313, 8-((2S,4R,5S)-4-(3-chlorophenoxy)-2,5-dimethylpiperidin-1-yl)-5-methyl-6-oxo-5,6-dihydro-1,5-naphthyridine-2-carbonitrile] belongs 7100 nM.
For `CCO[C@H]1CN(c2cc(=O)n(C)c3ccc(C#N)nc23)CC[C@@H]1Oc1nc2ccccc2s1` [Example 374], the EC50 in assay [1] (setting [6]) stood at 20000 nM.
`CC(C)Oc1ccc(OC2C[C@@H](C)N(c3nc(=O)n(C)c4ccc(C#N)nc34)C[C@@H]2C)nc1` (stereo partly drawn) [Example 249, 4-((2R,5S)-4-((5-isopropoxypyridin-2-yl)oxy)-2,5-dimethylpiperidin-1-yl)-1-methyl-2-oxo-1,2-dihydropyrido[3,2-d]pyrimidine-6-carbonitrile]: in assay [1] (setting [8]), the EC50 came out at 490 nM.
Turning to `CC[C@@H]1CN(c2cc(=O)n(C)c3ccc(C#N)nc23)[C@@H](C)C[C@@H]1Oc1ccc(OC(C)C)cn1` [Example 299, 8-((2S,4S,5R)-5-ethyl-4-((5-isopropoxypyridin-2-yl)oxy)-2-methylpiperidin-1-yl)-5-methyl-6-oxo-5,6-dihydro-1,5-naphthyridine-2-carbonitrile], the EC50 in assay [1] (setting [7]) stood at 780 nM.
On to `CCO[C@H]1CN(c2cc(=O)n(C)c3ccc(C#N)nc23)CC[C@H]1Oc1ccc(OC(C)C)cn1` (relative stereo) [Example 372, cis-8-(3-Ethoxy-4-((5-isopropoxypyridin-2-yl)oxy)piperidin-1-yl)-5-methyl-6-oxo-5,6-dihydro-1,5-naphthyridine-2-carbonitrile], for which, in assay [1] (setting [6]), the EC50 was 18000 nM.
Consider `CCO[C@H]1CN(c2cc(=O)n(C)c3ccc(C#N)nc23)CC[C@@H]1Oc1ccc(S(C)(=O)=O)cc1` [Example 354, 8-((3S,4S)-3-ethoxy-4-(4-(methylsulfonyl)phenoxy)piperidin-1-yl)-5-methyl-6-oxo-5,6-dihydro-1,5-naphthyridine-2-carbonitrile], for which the EC50 in assay [1] (setting [3]) was found to be 20000 nM.
As to `CC(C)Oc1ccc(OC2C[C@H](C)N(c3nc(=O)n(C)c4ccc(C#N)nc34)C[C@H]2C)nc1` (stereo partly drawn) [Example 250, 4-((2S,5R)-4-((5-isopropoxypyridin-2-yl)oxy)-2,5-dimethylpiperidin-1-yl)-1-methyl-2-oxo-1,2-dihydropyrido[3,2-d]pyrimidine-6-carbonitrile], the EC50 in assay [1] (setting [8]) amounted to 2100 nM.
In the case of `Cn1c(=O)cc(N2CC[C@@H](Oc3cccc(C(F)(F)F)c3)[C@H](OCCN3CCOCC3)C2)c2nc(C#N)ccc21` [Example 391, 5-methyl-8-((3R,4R)-3-(2-morpholinoethoxy)-4-(3-(trifluoromethyl)phenoxy)piperidin-1-yl)-6-oxo-5,6-dihydro-1,5-naphthyridine-2-carbonitrile], the EC50 in assay [1] (Homo sapiens, CD8 positive, read-out: DGK HWB (human whole blood pERK), human whole blood, CD8 positive population, anti-CD3 stimulation, top concentration 20 μM) was 17000 nM.
In the case of `C[C@@H]1CN(c2cc(=O)n(C)c3ccc(C#N)nc23)[C@@H](C)CC1N(C)Cc1ccc(F)cc1` (single isomer, unassigned) [Example 332], the EC50 in assay [1] (setting [8]) worked out at 16000 nM.
On to `CCO[C@H]1CN(c2cc(=O)n(C)c3ccc(C#N)nc23)CC[C@@H]1Oc1ccccc1` (relative stereo) [Example 342, trans-8-(3-Ethoxy-4-phenoxypiperidin-1-yl)-5-methyl-6-oxo-5,6-dihydro-1,5-naphthyridine-2-carbonitrile], for which, in assay [1] (setting [6]), the EC50 amounted to 840 nM.
With `CCO[C@H]1CN(c2cc(=O)n(C)c3ccc(C#N)nc23)CC[C@@H]1Oc1cc(C(F)(F)F)ccn1` [Example 365, 8-((3S,4S)-3-ethoxy-4-((4-(trifluoromethyl)pyridin-2-yl)oxy)piperidin-1-yl)-5-methyl-6-oxo-5,6-dihydro-1,5-naphthyridine-2-carbonitrile], the EC50 in assay [1] (setting [6]) stood at 600 nM.
Still for that read-out and setting: the figure for `CCO[C@H]1CN(c2cc(=O)n(C)c3ccc(C#N)nc23)CC[C@H]1Oc1ccc(OC(C)C)cn1` (relative stereo) [Example 371, cis-8-(3-Ethoxy-4-((5-isopropoxypyridin-2-yl)oxy)piperidin-1-yl)-5-methyl-6-oxo-5,6-dihydro-1,5-naphthyridine-2-carbonitrile] is 3600 nM.
Regarding `CCO[C@H]1CN(c2cc(=O)n(C)c3ccc(C#N)nc23)CC[C@H]1Oc1cccc(C(F)(F)F)c1` (relative stereo) [Example 369, cis-8-(3-Ethoxy-4-(3-(trifluoromethyl)phenoxy)piperidin-1-yl)-5-methyl-6-oxo-5,6-dihydro-1,5-naphthyridine-2-carbonitrile], the EC50 in assay [1] (setting [3]) is 620 nM.
